These results are taken from patent US7998989B2, “2-Imino-1,3-thiazoline-based compounds and T-type calcium channel inhibitors containing the same” (Korea Institute of Science and Technology, priority 2007, dated 2011).

Data set [1] deals with T1, α1G T-type calcium channel (Homo sapiens, UniProt O43497).
T1 construct: host or cells: HEK293
In words: Assay for % inhibiting activity against T-type calcium channel using FDSS6000 (fluo-3 calcium imaging, KCl activation). It is filed as cell-based. The settings on record: HEK293, 10 μM; HEK293 cells stably expressing α1G T-type calcium channel and Kir2.1; compounds of the examples; read-out: FDSS (% inhibition)/10uM. An outline of the steps:
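HEK293 cells stably expressing α1G and Kir2.1 loaded with 5 μM fluo-3/AM, then in HEPES buffer (pH 7.4) with 10 mM CaCl2. Compound applied 75 s before 75 mM KCl; intracellular Ca2+ read as […] area, % inhibition relative to untreated control.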

T1 sequence (O43497 whole entry): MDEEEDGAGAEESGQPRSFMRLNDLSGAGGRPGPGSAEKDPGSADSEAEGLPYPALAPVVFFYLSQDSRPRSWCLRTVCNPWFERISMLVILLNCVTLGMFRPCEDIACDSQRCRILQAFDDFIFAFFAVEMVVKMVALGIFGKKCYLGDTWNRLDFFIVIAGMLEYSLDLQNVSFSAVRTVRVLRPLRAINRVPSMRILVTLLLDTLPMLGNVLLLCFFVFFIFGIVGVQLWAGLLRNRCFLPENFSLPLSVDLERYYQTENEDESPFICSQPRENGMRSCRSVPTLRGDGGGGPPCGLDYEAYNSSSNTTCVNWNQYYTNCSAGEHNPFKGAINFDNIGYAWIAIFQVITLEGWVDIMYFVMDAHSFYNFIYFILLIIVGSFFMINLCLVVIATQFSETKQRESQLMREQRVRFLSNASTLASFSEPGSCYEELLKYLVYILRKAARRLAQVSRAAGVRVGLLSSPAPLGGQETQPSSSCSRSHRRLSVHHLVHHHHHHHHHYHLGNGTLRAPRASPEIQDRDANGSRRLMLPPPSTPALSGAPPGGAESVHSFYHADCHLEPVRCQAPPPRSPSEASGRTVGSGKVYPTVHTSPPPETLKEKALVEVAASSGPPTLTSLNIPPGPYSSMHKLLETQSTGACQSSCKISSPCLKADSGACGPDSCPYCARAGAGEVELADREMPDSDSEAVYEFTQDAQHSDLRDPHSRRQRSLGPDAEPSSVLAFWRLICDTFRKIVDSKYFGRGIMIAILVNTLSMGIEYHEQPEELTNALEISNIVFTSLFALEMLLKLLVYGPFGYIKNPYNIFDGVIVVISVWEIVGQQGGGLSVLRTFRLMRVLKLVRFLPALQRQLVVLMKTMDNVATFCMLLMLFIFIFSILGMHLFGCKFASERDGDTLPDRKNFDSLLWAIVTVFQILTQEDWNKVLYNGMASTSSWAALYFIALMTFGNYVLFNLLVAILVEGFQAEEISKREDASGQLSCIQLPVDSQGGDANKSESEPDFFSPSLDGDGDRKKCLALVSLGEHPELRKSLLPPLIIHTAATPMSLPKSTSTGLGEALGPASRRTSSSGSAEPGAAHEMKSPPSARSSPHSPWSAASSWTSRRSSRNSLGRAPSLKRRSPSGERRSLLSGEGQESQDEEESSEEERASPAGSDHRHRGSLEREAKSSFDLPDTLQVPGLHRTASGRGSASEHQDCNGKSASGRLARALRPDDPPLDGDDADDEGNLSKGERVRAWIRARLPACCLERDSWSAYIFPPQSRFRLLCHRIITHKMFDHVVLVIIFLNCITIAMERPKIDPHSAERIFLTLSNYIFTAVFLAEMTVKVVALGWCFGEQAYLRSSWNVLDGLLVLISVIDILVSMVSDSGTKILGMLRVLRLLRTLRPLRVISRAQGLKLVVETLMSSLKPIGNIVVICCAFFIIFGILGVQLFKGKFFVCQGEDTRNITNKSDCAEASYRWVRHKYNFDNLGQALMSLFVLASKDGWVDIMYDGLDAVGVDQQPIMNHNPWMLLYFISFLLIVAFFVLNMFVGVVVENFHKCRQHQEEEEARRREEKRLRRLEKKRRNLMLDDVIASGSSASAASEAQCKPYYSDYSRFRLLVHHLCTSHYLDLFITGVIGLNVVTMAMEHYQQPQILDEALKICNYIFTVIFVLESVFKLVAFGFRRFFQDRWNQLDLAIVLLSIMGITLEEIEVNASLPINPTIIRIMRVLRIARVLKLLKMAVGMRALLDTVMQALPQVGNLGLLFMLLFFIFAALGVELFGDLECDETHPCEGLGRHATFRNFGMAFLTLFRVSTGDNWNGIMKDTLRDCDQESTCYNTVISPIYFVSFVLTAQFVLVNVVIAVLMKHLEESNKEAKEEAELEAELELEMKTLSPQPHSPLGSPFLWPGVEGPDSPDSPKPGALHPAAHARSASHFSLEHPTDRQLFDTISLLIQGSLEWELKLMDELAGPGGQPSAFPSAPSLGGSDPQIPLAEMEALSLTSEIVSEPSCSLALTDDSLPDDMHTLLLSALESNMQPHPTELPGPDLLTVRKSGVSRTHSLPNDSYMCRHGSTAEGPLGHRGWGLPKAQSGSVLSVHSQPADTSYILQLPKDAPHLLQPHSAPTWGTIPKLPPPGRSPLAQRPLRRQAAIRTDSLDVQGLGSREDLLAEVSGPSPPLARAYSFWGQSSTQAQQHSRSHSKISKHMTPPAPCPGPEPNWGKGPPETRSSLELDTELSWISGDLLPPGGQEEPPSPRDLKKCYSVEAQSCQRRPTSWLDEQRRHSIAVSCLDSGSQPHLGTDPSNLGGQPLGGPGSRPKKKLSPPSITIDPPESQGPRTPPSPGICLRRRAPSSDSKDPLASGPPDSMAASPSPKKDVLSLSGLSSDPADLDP

Broadly, the melting point is the temperature of the solid-liquid transition. Compound `CCCN1C(=NC23CC4CC(CC(C4)C2)C3)SCC1CC(=O)Nc1ccc(C(F)(F)F)cc1.Cl` (stereo not shown) [KHG24809, [2-(1-adamantylimino)-3-n-propyl-1,3-thiazolidine-4-yl]-N-(4-trifluoromethylphenyl)-acetamide hydrochloride] gave a melting point of 221 °C. Moreover, the inhibition at 10 µM in data set [1] was determined as 57.3%.
In the same order, the values of `CCCN1C(=NC23CC4CC(CC(C4)C2)C3)SCC1CC(=O)Nc1ccc(Br)cc1.Cl` (stereo not shown) [KHG24812, [2-(1-adamantylimino)-3-n-propyl-1,3-thiazolidine-4-yl]-N-(4-bromophenyl)-acetamide hydrochloride] are 228 °C and 53.8%.
`CCCN1C(=NC23CC4CC(CC(C4)C2)C3)SCC1CC(=O)Nc1ccc(C)cc1.Cl` (stereo not shown) [KHG24813, [2-(1-adamantylimino)-3-n-propyl-1,3-thiazolidine-4-yl]-N-(4-methylphenyl)-acetamide hydrochloride] gave a melting point of 239 °C. Further, the inhibition at 10 µM in data set [1] was determined as 61.6%.
In the same order, the values of `CCCN1C(=NC23CC4CC(CC(C4)C2)C3)SCC1CC(=O)Nc1ccc(Oc2ccccc2)cc1.Cl` (stereo not shown) [KHG24815, [2-(1-adamantylimino)-3-n-propyl-1,3-thiazolidine-4-yl]-N-(4-phenoxyphenyl)-acetamide hydrochloride] are 135 °C and 32.7%.
In the same order, the values of `CCCN1C(=NC23CC4CC(CC(C4)C2)C3)SCC1CC(=O)Nc1cc(Cl)ccc1F.Cl` (stereo not shown) [KHG24817, [2-(1-adamantylimino)-3-n-propyl-1,3-thiazolidine-4-yl]-N-(5-chloro-2-fluorophenyl)-acetamide hydrochloride] are 130 °C and 60.5%.
For `CCCN1C(=NC23CC4CC(CC(C4)C2)C3)SCC1CC(=O)Nc1ccc(C)cc1Cl.Cl` (stereo not shown) [KHG24818, [2-(1-adamantylimino)-3-n-propyl-1,3-thiazolidine-4-yl]-N-(2-chloro-4-methylphenyl)-acetamide hydrochloride], the melting point is 201 °C. Further, the inhibition at 10 µM in data set [1] was 68.2%.
On to `CCN1C(=NC23CC4CC(CC(C4)C2)C3)SCC1CC(=O)Nc1ccc(C(C)C)cc1.Cl` (stereo not shown) [KHG24819, [2-(1-adamantylimino)-3-ethyl-1,3-thiazolidine-4-yl]-N-(4-isopropylphenyl)-acetamide hydrochloride], for which the melting point was 158 °C. The inhibition at 10 µM in data set [1] turned out to be 69.2%.
In the same order, the values of `CCCCc1ccc(NC(=O)CC2CSC(=NC34CC5CC(CC(C5)C3)C4)N2CC)cc1.Cl` (stereo not shown) [KHG24820, [2-(1-adamantylimino)-3-ethyl-1,3-thiazolidine-4-yl]-N-(4-n-butylphenyl)-acetamide hydrochloride] are 141 °C and 58%.
In the same order, the values of `CC(C)N1C(=NC23CC4CC(CC(C4)C2)C3)SCC1CC(=O)Nc1ccc(Cl)cc1.Cl` (stereo not shown) [KHG24823, [2-(1-adamantylimino)-3-isopropyl-1,3-thiazolidine-4-yl]-N-(4-chlorophenyl)-acetamide hydrochloride] are 236 °C and 54.1%.
The compound `CC(C)N1C(=NC23CC4CC(CC(C4)C2)C3)SCC1CC(=O)Nc1ccc(C(F)(F)F)cc1.Cl` (stereo not shown) [KHG24826, [2-(1-adamantylimino)-3-isopropyl-1,3-thiazolidine-4-yl]-N-(4-trifluoromethylphenyl)-acetamide hydrochloride] returned a melting point of 246 °C. Further, the inhibition at 10 µM in data set [1] amounted to 46.5%.
In the same order, the values of `CC(C)N1C(=NC23CC4CC(CC(C4)C2)C3)SCC1CC(=O)Nc1cc(C(F)(F)F)cc(C(F)(F)F)c1.Cl` (stereo not shown) [KHG24828, [2-(1-adamantylimino)-3-isopropyl-1,3-thiazolidine-4-yl]-N-(3,5-ditrifluoromethylphenyl)-acetamide hydrochloride] are 233 °C and 35.4%.
In the same order, the values of `CC(C)N1C(=NC23CC4CC(CC(C4)C2)C3)SCC1CC(=O)Nc1ccc(CF)cc1.Cl` (stereo not shown) [KHG24829, [2-(1-adamantylimino)-3-isopropyl-1,3-thiazolidine-4-yl]-N-(4-fluoromethylphenyl)-acetamide hydrochloride] are 227 °C and 69%.
As to `Cc1ccc(NC(=O)CC2CSC(=NC34CC5CC(CC(C5)C3)C4)N2C(C)C)cc1.Cl` (stereo not shown) [KHG24831, [2-(1-adamantylimino)-3-isopropyl-1,3-thiazolidine-4-yl]-N-(4-methylphenyl)-acetamide hydrochloride], the melting point is 220 °C. Moreover, in data set [1], the inhibition at 10 µM was determined as 57%.
In the same order, the values of `CCc1ccc(NC(=O)CC2CSC(=NC34CC5CC(CC(C5)C3)C4)N2C(C)C)cc1.Cl` (stereo not shown) [KHG24832, [2-(1-adamantylimino)-3-isopropyl-1,3-thiazolidine-4-yl]-N-(4-ethylphenyl)-acetamide hydrochloride] are 171 °C and 46.5%.
In the same order, the values of `CC(C)N1C(=NC23CC4CC(CC(C4)C2)C3)SCC1CC(=O)Nc1ccc(Oc2ccccc2)cc1.Cl` (stereo not shown) [KHG24833, [2-(1-adamantylimino)-3-isopropyl-1,3-thiazolidine-4-yl]-N-(4-phenoxyphenyl)-acetamide hydrochloride] are 164 °C and 37%.
In the same order, the values of `CC(C)N1C(=NC23CC4CC(CC(C4)C2)C3)SCC1CC(=O)Nc1ccc(Cl)cc1F.Cl` (stereo not shown) [KHG24834, [2-(1-adamantylimino)-3-isopropyl-1,3-thiazolidine-4-yl]-N-(4-chloro-2-fluorophenyl)-acetamide hydrochloride] are 228 °C and 65.7%.
Turning to `CC(C)N1C(=NC23CC4CC(CC(C4)C2)C3)SCC1CC(=O)Nc1cc(Cl)ccc1F.Cl` (stereo not shown) [KHG24835, [2-(1-adamantylimino)-3-isopropyl-1,3-thiazolidine-4-yl]-N-(5-chloro-2-fluorophenyl)-acetamide hydrochloride], the melting point was 116 °C. Moreover, the inhibition at 10 µM in data set [1] came to 55.2%.
In the same order, the values of `Cc1ccc(NC(=O)CC2CSC(=NC34CC5CC(CC(C5)C3)C4)N2C(C)C)cc1Cl.Cl` (stereo not shown) [KHG24836, [2-(1-adamantylimino)-3-isopropyl-1,3-thiazolidine-4-yl]-N-(5-chloro-4-methylphenyl)-acetamide hydrochloride] are 231 °C and 48.9%.
For the compound `CCCN1C(=NC23CC4CC(CC(C4)C2)C3)SCC1CC(=O)Nc1cc([N+](=O)[O-])ccc1F.Cl` (stereo not shown) [KHG24839, [2-(1-adamantylimino)-3-n-propyl-1,3-thiazolidine-4-yl]-N-(2-fluoro-5-nitrophenyl)-acetamide hydrochloride], the melting point was 145 °C. In addition, in data set [1], the inhibition at 10 µM came to 59.7%.
In the same order, the values of `CC(C)N1C(=NC23CC4CC(CC(C4)C2)C3)SCC1CC(=O)Nc1cc([N+](=O)[O-])ccc1F.Cl` (stereo not shown) [KHG24840, [2-(1-adamantylimino)-3-isopropyl-1,3-thiazolidine-4-yl]-N-(2-fluoro-5-nitrophenyl)-acetamide hydrochloride] are 131 °C and 49.4%.
